Key:
D1 dopamine receptor = target: T1, D1 dopamine receptor (Homo sapiens, UniProt P21728); assay: Ca2+ flux functional assay at D1; type: cell-based; settings: agonist, max dose, read-out: D1 % Act @ Max Dose
T1 construct: expressed in transfected cells
Description: (§1) Disclosed compounds were tested for agonist activity at several adrenergic (Alpha1A and Alpha2A) and dopamine (D1 and D2) receptor subtypes using Ca^2+ flux functional assays, with the results summarized in Table 6. Selectivity for the 5-HT2A receptor over these other targets varied depending on the specific target and compound.
(§2) Functional Assays at Adrenergic and Dopamine Receptors. Agonist activity at Alpha1A, Alpha2A, D1, and D2 receptors was determined using a FLIPR Ca^2+ flux assay at WuXi AppTec (Hong Kong) Limited according to their standard protocols. Briefly, stably transfected cells expressing the receptor of interest were grown and plated in a 384 well plate and incubated at 37° C. and 5% CO2 overnight. A solution of 250 mM probenecid in 1 mL FLIPR assay buffer was prepared fresh. This was combined with a fluorescent dye (Fluo-4 Direct™) to make a final assay concentration of 2.5 mM. Compounds were diluted 1:3.16 for 10 points and 750 nL was added to a 384 well compound plate using ECHO along with 30 μL assay buffer. The fluorescent dye was then added to the assay plate along with assay buffer to a final volume of 40 μL. The cell plate was incubated for 50 min at 37° C. and 5% CO2 and placed into the FLIPR Tetra along with the compound plate. 10 μL of references and compounds were then transferred from the compound plate into the cell plate and the fluorescent signal was read.

D2 dopamine receptor = target: T2, D2 dopamine receptor (Homo sapiens, UniProt P14416); assay: Ca2+ flux functional assay at D2; type: cell-based; settings: agonist, Ca2+ flux, max dose; read-out: D2 % Act @ Max Dose
T2 construct: expressed in transfected cells
T2 sequence (P14416 whole entry): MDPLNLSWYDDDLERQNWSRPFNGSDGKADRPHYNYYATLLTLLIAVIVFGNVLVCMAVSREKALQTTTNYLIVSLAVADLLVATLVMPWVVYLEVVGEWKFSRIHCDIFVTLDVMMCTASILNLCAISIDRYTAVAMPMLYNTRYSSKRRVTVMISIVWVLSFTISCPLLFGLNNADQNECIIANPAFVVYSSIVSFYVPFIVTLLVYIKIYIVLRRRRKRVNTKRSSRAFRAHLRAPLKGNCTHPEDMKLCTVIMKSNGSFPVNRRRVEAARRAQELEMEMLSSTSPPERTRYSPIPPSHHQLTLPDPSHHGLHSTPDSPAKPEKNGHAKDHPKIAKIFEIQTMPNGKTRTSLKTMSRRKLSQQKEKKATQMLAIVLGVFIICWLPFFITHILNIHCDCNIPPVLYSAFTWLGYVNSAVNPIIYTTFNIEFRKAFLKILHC
Description: as §1, §2

C57BL/6 mice = assay: Mouse head twitch response (HTR) assay (observer-counted); type: in vivo; settings: SC

T1 sequence (P21728 whole entry): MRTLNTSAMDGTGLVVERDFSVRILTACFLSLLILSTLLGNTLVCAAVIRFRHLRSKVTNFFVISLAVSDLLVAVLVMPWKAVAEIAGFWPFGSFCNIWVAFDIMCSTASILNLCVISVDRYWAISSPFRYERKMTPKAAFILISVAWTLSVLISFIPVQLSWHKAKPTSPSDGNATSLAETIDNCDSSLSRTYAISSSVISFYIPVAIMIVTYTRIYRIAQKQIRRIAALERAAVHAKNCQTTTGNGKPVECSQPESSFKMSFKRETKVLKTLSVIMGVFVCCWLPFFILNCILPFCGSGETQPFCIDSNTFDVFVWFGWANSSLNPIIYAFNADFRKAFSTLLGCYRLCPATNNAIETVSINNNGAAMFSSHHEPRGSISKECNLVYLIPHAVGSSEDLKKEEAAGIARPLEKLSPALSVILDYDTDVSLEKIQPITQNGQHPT

## CCN(CC)C(=O)[C@@H]1C=C2c3cccc4[nH]cc(c34)C[C@H]2N(Cc2ccccc2OC)C1 [Compound 10, (6aR,9R)—N,N-diethyl-7-(2-methoxybenzyl)-4,6,6a,7,8,9-hexahydroindolo[4,3-fg]quinoline-9-carboxamide]
D1 dopamine receptor
  Emax: 114%
D2 dopamine receptor
  Emax: 86.9%
C57BL/6 mice; maximal effect
  efficacy in HTR assay: low efficacy
C57BL/6 mice; most efficacious dose 3.2 mg/kg
  # HTR/20 min at Most Efficacious Dose: 6.5 HTR/20 min
